# Experimental data taken from PubChem BioAssay (NCI).
#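 Method: 48-hour compound exposure of cells in 96-well plates, five concentrations, linear interpolation of endpoints. TGI denotes the concentration required for complete inhibition of growth.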
# Tests used:
# Assay in all cases: DTP human tumour cell line panel, 48 h
# CCRF-CEM leukemia = test system: CCRF-CEM leukemia
# SW-620 colon = test system: SW-620 colon
# U251 CNS = test system: U251 CNS
# SNB-75 CNS = test system: SNB-75 CNS
# SK-OV-3 ovarian = test system: SK-OV-3 ovarian
# COLO 205 colon = test system: COLO 205 colon
# KM12 colon = test system: KM12 colon
# SK-MEL-28 melanoma = test system: SK-MEL-28 melanoma
# NCI-H226 lung = test system: NCI-H226 lung
# A549 NSCLC = test system: A549 NSCLC
# HT29 colon = test system: HT29 colon
# PC-3 prostate = test system: PC-3 prostate
# DU-145 prostate = test system: DU-145 prostate
# SF-295 CNS = test system: SF-295 CNS
# BT-549 breast = test system: BT-549 breast
# SF-539 CNS = test system: SF-539 CNS
# SK-MEL-2 melanoma = test system: SK-MEL-2 melanoma
# OVCAR-5 ovarian = test system: OVCAR-5 ovarian
# MDA-MB-231 breast = test system: MDA-MB-231 breast
# MALME-3M melanoma = test system: MALME-3M melanoma
# MDA-MB-435 = test system: MDA-MB-435
# HS 578T breast = test system: HS 578T breast
# RPMI-8226 leukemia = test system: RPMI-8226 leukemia
# MCF7 breast = test system: MCF7 breast
# OVCAR-3 ovarian = test system: OVCAR-3 ovarian
# OVCAR-4 ovarian = test system: OVCAR-4 ovarian
# SF-268 CNS = test system: SF-268 CNS
# EKVX NSCLC = test system: EKVX NSCLC
# NCI/ADR-RES ovarian = test system: NCI/ADR-RES ovarian
# SK-MEL-5 melanoma = test system: SK-MEL-5 melanoma
# IGROV1 ovarian = test system: IGROV1 ovarian
# RXF 393 renal = test system: RXF 393 renal
# HL-60(TB) leukemia = test system: HL-60(TB) leukemia
# SR leukemia = test system: SR leukemia
# 786-0 renal = test system: 786-0 renal
# SNB-19 CNS = test system: SNB-19 CNS
# SN12C renal = test system: SN12C renal
# HOP-62 NSCLC = test system: HOP-62 NSCLC
# T-47D breast = test system: T-47D breast
# NCI-H460 lung = test system: NCI-H460 lung
# MDA-N = test system: MDA-N
# A498 renal = test system: A498 renal
# NCI-H23 lung = test system: NCI-H23 lung
# ACHN renal = test system: ACHN renal
# HOP-92 NSCLC = test system: HOP-92 NSCLC
# UACC-62 melanoma = test system: UACC-62 melanoma
# HCT-15 colon = test system: HCT-15 colon
# M14 melanoma = test system: M14 melanoma
# K-562 leukemia = test system: K-562 leukemia
# TK-10 renal = test system: TK-10 renal
# MOLT-4 leukemia = test system: MOLT-4 leukemia
# UACC-257 melanoma = test system: UACC-257 melanoma
# UO-31 renal = test system: UO-31 renal
# CAKI-1 renal = test system: CAKI-1 renal
# OVCAR-8 ovarian = test system: OVCAR-8 ovarian
# HCT-116 colon = test system: HCT-116 colon
# HCC-2998 colon = test system: HCC-2998 colon
# LOX IMVI melanoma = test system: LOX IMVI melanoma
# NCI-H522 lung = test system: NCI-H522 lung
# M19-MEL melanoma = test system: M19-MEL melanoma
# KM20L2 colon = test system: KM20L2 colon
# HOP-18 NSCLC = test system: HOP-18 NSCLC
# DMS 114 small cell lung = test system: DMS 114 small cell lung
# DLD-1 colon = test system: DLD-1 colon
# SNB-78 CNS = test system: SNB-78 CNS
# LXFL 529 NSCLC = test system: LXFL 529 NSCLC
# DMS 273 small cell lung = test system: DMS 273 small cell lung
structure (smiles),measurement,setting,value
O=C(Nc1ccc(Cl)c(Cl)c1)N1N=C2c3ccccc3CCC2C1c1ccc(Cl)cc1 (stereo not given),TGI,CCRF-CEM leukemia,> 100 µM
same,TGI,SW-620 colon,> 100 µM
same,TGI,U251 CNS,> 100 µM
same,TGI,SNB-75 CNS,> 100 µM
same,TGI,SK-OV-3 ovarian,> 100 µM
same,TGI,COLO 205 colon,> 100 µM
same,TGI,KM12 colon,> 100 µM
same,TGI,SK-MEL-28 melanoma,> 100 µM
same,TGI,NCI-H226 lung,> 100 µM
same,TGI,A549 NSCLC,> 100 µM
same,TGI,HT29 colon,> 100 µM
same,TGI,PC-3 prostate,> 100 µM
same,TGI,DU-145 prostate,> 100 µM
same,TGI,SF-295 CNS,> 100 µM
same,TGI,BT-549 breast,> 100 µM
same,TGI,SF-539 CNS,> 100 µM
same,TGI,SK-MEL-2 melanoma,> 100 µM
same,TGI,OVCAR-5 ovarian,> 100 µM
same,TGI,MDA-MB-231 breast,> 100 µM
same,TGI,MALME-3M melanoma,> 100 µM
same,TGI,MDA-MB-435,> 100 µM
same,TGI,HS 578T breast,> 100 µM
same,TGI,RPMI-8226 leukemia,> 100 µM
same,TGI,MCF7 breast,> 100 µM
same,TGI,OVCAR-3 ovarian,> 100 µM
same,TGI,OVCAR-4 ovarian,> 100 µM
same,TGI,SF-268 CNS,> 100 µM
same,TGI,EKVX NSCLC,> 100 µM
same,TGI,NCI/ADR-RES ovarian,> 100 µM
same,TGI,SK-MEL-5 melanoma,> 100 µM
same,TGI,IGROV1 ovarian,> 100 µM
same,TGI,RXF 393 renal,> 100 µM
same,TGI,HL-60(TB) leukemia,> 100 µM
same,TGI,SR leukemia,> 100 µM
same,TGI,786-0 renal,> 100 µM
same,TGI,SNB-19 CNS,> 100 µM
same,TGI,SN12C renal,> 100 µM
same,TGI,HOP-62 NSCLC,> 100 µM
same,TGI,T-47D breast,> 100 µM
same,TGI,NCI-H460 lung,> 100 µM
same,TGI,MDA-N,> 100 µM
same,TGI,A498 renal,> 100 µM
same,TGI,NCI-H23 lung,> 100 µM
same,TGI,ACHN renal,> 100 µM
same,TGI,HOP-92 NSCLC,> 100 µM
same,TGI,UACC-62 melanoma,> 100 µM
same,TGI,HCT-15 colon,> 100 µM
same,TGI,M14 melanoma,> 100 µM
same,TGI,K-562 leukemia,> 100 µM
same,TGI,TK-10 renal,> 100 µM
same,TGI,MOLT-4 leukemia,> 100 µM
same,TGI,UACC-257 melanoma,> 100 µM
same,TGI,UO-31 renal,> 100 µM
same,TGI,CAKI-1 renal,> 100 µM
same,TGI,OVCAR-8 ovarian,> 100 µM
same,TGI,HCT-116 colon,> 100 µM
same,TGI,HCC-2998 colon,> 100 µM
same,TGI,LOX IMVI melanoma,> 100 µM
same,TGI,NCI-H522 lung,> 100 µM
c1ccc(C(=NNc2cnc3ccccc3n2)c2ccccn2)cc1,TGI,CCRF-CEM leukemia,28.3 µM
same,TGI,SW-620 colon,22.5 µM
same,TGI,U251 CNS,23.8 µM
same,TGI,SNB-75 CNS,31.4 µM
same,TGI,SK-OV-3 ovarian,> 44.6 µM
same,TGI,COLO 205 colon,24.6 µM
same,TGI,KM12 colon,20.5 µM
same,TGI,SK-MEL-28 melanoma,55.5 µM
same,TGI,NCI-H226 lung,40.6 µM
same,TGI,A549 NSCLC,15 µM
same,TGI,HT29 colon,17.7 µM
same,TGI,PC-3 prostate,19.2 µM
same,TGI,DU-145 prostate,> 61.3 µM
same,TGI,SF-295 CNS,12.8 µM
same,TGI,BT-549 breast,24.5 µM
same,TGI,SF-539 CNS,17.4 µM
same,TGI,SK-MEL-2 melanoma,26.2 µM
same,TGI,OVCAR-5 ovarian,27.1 µM
same,TGI,MDA-MB-231 breast,26.9 µM
same,TGI,MALME-3M melanoma,23 µM
same,TGI,MDA-MB-435,> 47.6 µM
same,TGI,HS 578T breast,37.9 µM
same,TGI,RPMI-8226 leukemia,> 36.8 µM
same,TGI,MCF7 breast,12.2 µM
same,TGI,OVCAR-3 ovarian,12.2 µM
same,TGI,OVCAR-4 ovarian,28 µM
same,TGI,SF-268 CNS,13.6 µM
same,TGI,EKVX NSCLC,13.4 µM
same,TGI,NCI/ADR-RES ovarian,2.15 µM
same,TGI,SK-MEL-5 melanoma,16 µM
same,TGI,IGROV1 ovarian,11.5 µM
same,TGI,RXF 393 renal,21.5 µM
same,TGI,HL-60(TB) leukemia,12.3 µM
same,TGI,SR leukemia,10.9 µM
same,TGI,786-0 renal,15.4 µM
same,TGI,SNB-19 CNS,> 39.6 µM
same,TGI,SN12C renal,24 µM
same,TGI,HOP-62 NSCLC,20 µM
same,TGI,T-47D breast,33.5 µM
same,TGI,NCI-H460 lung,10.5 µM
same,TGI,MDA-N,> 52.2 µM
same,TGI,A498 renal,> 100 µM
same,TGI,NCI-H23 lung,14.1 µM
same,TGI,ACHN renal,12.6 µM
same,TGI,HOP-92 NSCLC,28.3 µM
same,TGI,UACC-62 melanoma,20.2 µM
same,TGI,HCT-15 colon,14.5 µM
same,TGI,M14 melanoma,10.9 µM
same,TGI,K-562 leukemia,> 67.5 µM
same,TGI,MOLT-4 leukemia,11.4 µM
same,TGI,UACC-257 melanoma,17.5 µM
same,TGI,UO-31 renal,3.25 µM
same,TGI,CAKI-1 renal,12.2 µM
same,TGI,OVCAR-8 ovarian,2.68 µM
same,TGI,HCT-116 colon,> 36.6 µM
same,TGI,HCC-2998 colon,19.9 µM
same,TGI,NCI-H522 lung,12.3 µM
O=C1c2ccccc2C(=O)N1C/C=C/CO,TGI,CCRF-CEM leukemia,> 100 µM
same,TGI,SW-620 colon,> 100 µM
same,TGI,U251 CNS,> 100 µM
same,TGI,SNB-75 CNS,> 100 µM
same,TGI,SK-OV-3 ovarian,> 100 µM
same,TGI,COLO 205 colon,> 100 µM
same,TGI,KM12 colon,> 100 µM
same,TGI,M19-MEL melanoma,> 100 µM
same,TGI,SK-MEL-28 melanoma,> 100 µM
same,TGI,NCI-H226 lung,> 100 µM
same,TGI,A549 NSCLC,> 100 µM
same,TGI,SF-539 CNS,> 100 µM
same,TGI,SK-MEL-2 melanoma,> 100 µM
same,TGI,KM20L2 colon,> 100 µM
same,TGI,MALME-3M melanoma,> 100 µM
same,TGI,RPMI-8226 leukemia,> 100 µM
same,TGI,HOP-18 NSCLC,> 100 µM
same,TGI,OVCAR-3 ovarian,> 100 µM
same,TGI,OVCAR-4 ovarian,> 100 µM
same,TGI,SF-268 CNS,> 100 µM
same,TGI,SK-MEL-5 melanoma,> 100 µM
same,TGI,IGROV1 ovarian,> 100 µM
same,TGI,RXF 393 renal,> 100 µM
same,TGI,HL-60(TB) leukemia,> 100 µM
same,TGI,SR leukemia,> 100 µM
same,TGI,DMS 114 small cell lung,> 100 µM
same,TGI,DLD-1 colon,> 100 µM
same,TGI,786-0 renal,> 100 µM
same,TGI,SNB-19 CNS,> 100 µM
same,TGI,SN12C renal,> 100 µM
same,TGI,HOP-62 NSCLC,> 100 µM
same,TGI,NCI-H460 lung,> 100 µM
same,TGI,A498 renal,> 100 µM
same,TGI,ACHN renal,> 100 µM
same,TGI,SNB-78 CNS,> 100 µM
same,TGI,UACC-62 melanoma,> 100 µM
same,TGI,HCT-15 colon,> 100 µM
same,TGI,M14 melanoma,> 100 µM
same,TGI,K-562 leukemia,> 100 µM
same,TGI,TK-10 renal,> 100 µM
same,TGI,MOLT-4 leukemia,> 100 µM
same,TGI,UACC-257 melanoma,> 100 µM
same,TGI,LXFL 529 NSCLC,> 100 µM
same,TGI,UO-31 renal,> 100 µM
same,TGI,DMS 273 small cell lung,> 100 µM
same,TGI,CAKI-1 renal,> 100 µM
same,TGI,OVCAR-8 ovarian,> 100 µM
same,TGI,HCT-116 colon,> 100 µM
same,TGI,HCC-2998 colon,> 100 µM
same,TGI,NCI-H522 lung,> 100 µM
CCCCC(=O)OC[n+]1ccc2c(C)c3[nH]c4ccccc4c3c(C)c2c1,TGI,CCRF-CEM leukemia,4.08 µM
same,TGI,SNB-75 CNS,2.59 µM
same,TGI,SK-OV-3 ovarian,2.64 µM
same,TGI,COLO 205 colon,2.22 µM
same,TGI,KM12 colon,2 µM
same,TGI,NCI-H226 lung,2.06 µM
same,TGI,HT29 colon,2.44 µM
same,TGI,DU-145 prostate,2.73 µM
same,TGI,SF-295 CNS,1.97 µM
same,TGI,SF-539 CNS,2 µM
same,TGI,SK-MEL-2 melanoma,11.5 µM
same,TGI,OVCAR-5 ovarian,1.82 µM
same,TGI,KM20L2 colon,2.79 µM
same,TGI,MALME-3M melanoma,2.98 µM
same,TGI,HOP-18 NSCLC,9.74 µM
same,TGI,OVCAR-3 ovarian,2.54 µM
same,TGI,EKVX NSCLC,3.04 µM
same,TGI,NCI/ADR-RES ovarian,2.93 µM
same,TGI,SK-MEL-5 melanoma,2.84 µM
same,TGI,IGROV1 ovarian,6.23 µM
same,TGI,RXF 393 renal,2.52 µM
same,TGI,HL-60(TB) leukemia,2.93 µM
same,TGI,SR leukemia,2.31 µM
same,TGI,DLD-1 colon,1.64 µM
same,TGI,786-0 renal,1.62 µM
same,TGI,SN12C renal,2 µM
same,TGI,HOP-62 NSCLC,2.05 µM
same,TGI,A498 renal,2.62 µM
same,TGI,ACHN renal,1.81 µM
same,TGI,HOP-92 NSCLC,6.44 µM
same,TGI,UACC-62 melanoma,1.72 µM
same,TGI,HCT-15 colon,1.59 µM
same,TGI,K-562 leukemia,1.63 µM
same,TGI,TK-10 renal,5.01 µM
same,TGI,MOLT-4 leukemia,3.01 µM
same,TGI,UO-31 renal,3.69 µM
same,TGI,CAKI-1 renal,4.56 µM
same,TGI,HCC-2998 colon,0.978 µM
same,TGI,NCI-H522 lung,2.33 µM
